# Entries after “also recorded” stand apart in the source; their conditions may differ. Read-outs that look alike come from different tables or passages of the source.
# Experiments:
# [1] = Source text: (§1) The mice were randomized in each experimental series. A first routine experiment enable the death rate by toxicity to be determined and thus established the sublethal doses.
# (§2) To evaluate the therapeutic activity of the compounds of the invention, doses of said compound were expressed basing them on the 30 days sublethal dose which was fixed at 1.
# L1210 cells = assay: Rate of L1210 cells multiplication in vitro; assay type: cell-based, mouse
# mouse P 388 leukemia = assay: P 388 leukemia in mice, same procedure, inoculum of 10^5 cells; assay type: in vivo; details: same doses, compared with L1210 leukemia
# Source text: The effect the compounds of the invention have on mouse L 1210 or P 388 leukemias was used to test the antitumor activity of said compounds.
# B-The same procedure was used as in A, but after a tumoral inoculum of 10^5 P 388 leukemia cells had been injected to the mice. The therapeutic activity of the 9-hydroxy 2-methyl-ellipticinium was similar on this mouse P 388 leukemia to that obtained on mouse L1210 leukemia, using the same doses.
# [2] = Autoradiography with 14C-labeled molecules (biodisponibility); assay type: in vivo
# Source text: To understand the increase of the antitumor efficiency of the quaternarized compounds, several parameters of action of 9--OH--E and its methyl derivative have been comparatively established (see table III). Both compounds have about the same affinity for DNA. On a weight basis, the methyl compound is about 10 times more toxic in mice but also 10 times more efficient on leukemic mice (ILS). […] Therefore, there is no quantitative parallel between the in vivo and in vitro action of these drugs. The N-quaternization markedly changes the biodisponibility of the drugs as shown by autoradiography with ^14 C-labeled molecules. […] Several ellipticine derivatives are mutagenic on Ames Salmonella test; however, the quaternized derivatives lose this property. The microsomes, which are able to metabolize some ellipticines, increase the mutagenic ability of these drugs in vitro. […] Due to the curved shape of their molecules, their relative hydrophobicity, and the presence of a heterocyclic nitrogen, the ellipticines are good substrates for the cytochrome P450 system, provided that the 2-N remains uncharged.
# [3] = mouse, in vivo
# DNA = DNA affinity; assay type: binding
# [4] = tested on: advanced breast, thyroid, or colon cancers; assay: Phase I trial, weekly intravenous dose, refractory patients; assay type: in vivo, human
# Description: A phase I trial was done at the Cancer Institute of 14-Caen, France. A weekly dose in the range of 50 to 100 mg per m2 was given intravenously over a 30 minutes period to patients refractory to usual chemotherapeutic or radiotherapeutic treatments (3). […] They were suffering from advanced breast, thyroid, or colon cancers, with bone or lung metastasis in mostcases.
# mouse L 1210 leukemia [5] = assay: L1210 leukemia in mice: inoculum of 10^5 cells, single dose of compound 24 hours later; assay type: in vivo
# Source text: The experimental tumor mouse L 1210 leukemia is commonly used to evaluate the effects of all the antitumor compounds now used in human therapeutics,as was described, for example, by C. C. ZUBROD in Proc. Nat. Acad. Sci. USA 69, 1972, pp. 1042-1047. This experimentally formed tumoral system permits very accurate quantitative evaluation of the activity of the compound tested and also, consequently, an objective comparison of the respective activities of various compounds, for example, according to the methods described by H. E. SKIPPER, F. M. SCHABEL Jr. and W. S. WILCOX in Cancer Chemiother. Rep. 1964, pp. 1-111 and 45, 1965, pp. 5-28.
# as §1
# According to the convention in force in this field, the animals which survived longer than 45 days after inoculation of tumoral cells were considered to be cured.
# as §2
# A--A tumoral inoculum of 10^5 L1210 leukemia cells was administered by the intraperitoneal way to twenty 2 to 3 months old DBA/2 strain female mice. 24 hours later, half of said mice received a single intraperitoneal injection of a variable dose of the compound to be tested and the same volume of solvent was administered to the other half of the mice by the same way; this latter half of the group of mice was therefore used as the control series. The mice were randomized in each experimental series.
# Animals surviving for longer than 45 days were considered to be cured.
# [6] = cited from earlier work
# mouse L 1210 leukemia [7] = details: in vivo; cited from earlier work
# Hodgkin's disease = details: in vivo; cited from earlier work
# [8] = tested on: acute myeloblastic leukemia; details: in vivo; cited from earlier work
# BP 8 tumors = details: mouse, in vivo; cited from earlier work
# [9] = tested on: acute lymphoblastic leukemia; details: in vivo; cited from earlier work
compound,measurement,setting,value
"Cc1c2cc[n+](C)cc2c(C)c2c1[nH]c1ccc(O)cc12 [9-hydroxy 2-methyl ellipticinium acetate, 9-hydroxy-2-methyl-ellipticinium acetate]","Toxicity in mice relative to 9--OH--E, on a weight basis",[1],about 10 times
same,LDo (highest non lethal dose / sublethal dose) for mice,[1]; route not given,5 mg/kg
same,Activity on the rate of growth of L1210 cells in vitro relative to 9--OH--E,L1210 cells,four times less active
same,Therapeutic activity on mouse P 388 leukemia,mouse P 388 leukemia,similar
same,Elimination,[2],elimination through feces is reduced
same,Organ distribution (autoradiography),[2]; listed as methyl derivative,devoid of any ability to concentrate in lungs and pancreas; also recorded: capacity to concentrate in the intestinal walls and in the thyroid
same,Metabolism,[3],excreted with no major modification
same,Kd,DNA,769 nM
same,Activity on human tumors,"[4]; human, in vivo",active on some human tumors
same,Toxic side effects,[4]; phase I trial,No major toxic side effects
same,Patients with subjective or objective improvements,[4]; weekly 50 to 100 mg per m2 intravenously over 30 minutes,Eight of the first 18 patients
same,Doses smaller than the doses of 9-hydroxy-ellipticine necessary to obtain a comparable result,mouse L 1210 leukemia [5]; L1210 leukemia,about 10 times
same,ED (ILS 25%),"mouse L 1210 leukemia [5]; Mus musculus, L1210, ip, mice, read-out: L 1210 cells: in vivo dose to reach ILS 25%",1 mg/kg
same,Cured mouse surviving more than 45 days,"mouse L 1210 leukemia [5]; footnote of table IV, I.P., 10^5 L1210 cells",1 out of 20 mice
same,"Efficiency on leukemic mice (ILS) relative to 9--OH--E, on a weight basis","mouse L 1210 leukemia [5]; mouse, in vivo",about 10 times
COc1ccc2[nH]c3c(C)c4ccncc4c(C)c3c2c1 [9-methoxy-ellipticine lactate],Immunosuppressive action,[6]; administered after the antigen,has an immunosuppressive action
same,Immunosuppressive action,[6]; administered to humans,does not reveal such an activity
same,Oncostatic action in mouse L 1210 leukemia,mouse L 1210 leukemia [7],oncostatic action
same,Effectiveness in Hodgkin's disease,Hodgkin's disease,ineffective
same,Effectiveness in acute myeloblastic leukemia,[8],effective
same,Oncostatic action in BP 8 tumors,BP 8 tumors,oncostatic action
same,Effectiveness in acute lymphoblastic leukemia,[9],ineffective
